Assay results as given in PubChem BioAssay AID434972 (The Scripps Research Institute Molecular Screening Center, 2010).
Active and inactive are the calls of the source.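 How the source made its calls: active means inhibition of WEE1 degradation of at least 19%, seen as raised luminescence; inactive means the rest.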

What follows are compounds tested against Wee1-like protein kinase (Homo sapiens) (UniProt P30291) (assay: WEE1-luciferase stabilization in HeLa cells – cell-based, WEE1K328M-luciferase, luminescence, powder samples, SAR follow-up (AID 434972)). Conditions: HeLa WEE1K328M-luciferase stability, at 0.25 µM, stronger effect = higher value.
Sequence of Wee1-like protein kinase (Homo sapiens) (P30291 whole entry K328M): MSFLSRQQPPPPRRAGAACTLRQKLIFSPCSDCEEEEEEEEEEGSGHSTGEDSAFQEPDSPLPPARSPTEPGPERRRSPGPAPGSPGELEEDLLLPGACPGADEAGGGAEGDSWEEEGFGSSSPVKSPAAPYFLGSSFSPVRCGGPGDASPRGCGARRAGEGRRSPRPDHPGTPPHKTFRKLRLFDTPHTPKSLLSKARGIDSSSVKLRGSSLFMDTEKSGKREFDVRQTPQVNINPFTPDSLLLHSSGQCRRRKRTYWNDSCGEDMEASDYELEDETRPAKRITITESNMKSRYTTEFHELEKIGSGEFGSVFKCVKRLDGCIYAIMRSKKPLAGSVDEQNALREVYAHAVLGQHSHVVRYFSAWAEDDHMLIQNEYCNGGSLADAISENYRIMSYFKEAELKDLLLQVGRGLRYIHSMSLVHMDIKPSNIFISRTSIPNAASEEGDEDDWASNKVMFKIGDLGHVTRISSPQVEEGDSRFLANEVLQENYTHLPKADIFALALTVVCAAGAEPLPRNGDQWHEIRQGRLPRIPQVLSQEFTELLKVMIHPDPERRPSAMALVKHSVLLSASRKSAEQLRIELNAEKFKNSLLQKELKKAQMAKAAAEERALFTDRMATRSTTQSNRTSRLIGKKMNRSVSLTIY

Row | Structure (SMILES) | inhibition of WEE1 degradation
1 | Cc1ccnc(NC(=O)CCCOc2cc(=O)n(C)c3ccccc23)c1 | 6.4% (inactive)
2 | C=CCN(CC=C)c1nc(NCc2nc3ccccc3[nH]2)c2ncn(-c3ccsc3)c2n1 | 8.2% (inactive)
3 | c1ccc2[nH]c(CNc3nc(N4CCCC4)nc4c3ncn4-c3ccsc3)nc2c1 | 9.9% (inactive)
4 | N#Cc1ccc2nc(CNc3nc(N4CCOCC4)nc4c3ncn4-c3ccsc3)[nH]c2c1 | 85.9%
5 | CC(C)n1cnc2c(NCc3nc4ccccc4[nH]3)nc(Nc3cnccn3)nc21 | 5.3% (inactive)
6 | c1ccc2[nH]c(CNc3nc(NCCN4CCOCC4)nc4c3ncn4-c3ccsc3)nc2c1 | 8.1% (inactive)
7 | c1ccc(N2CCN(c3nc(NCc4nc5ccccc5[nH]4)c4ncn(-c5ccsc5)c4n3)CC2)nc1 | 4% (inactive)
8 | c1ccc2c(c1)CCN2c1nc(NCc2nc3ccccc3[nH]2)c2ncn(-c3ccsc3)c2n1 | 7.9% (inactive)
9 | c1ccc2[nH]c(CNc3nc(Nc4cnccn4)nc4c3ncn4-c3ccsc3)nc2c1 | 2.9% (inactive)
10 | c1ccc2[nH]c(CNc3nc(N4CCNCC4)nc4c3ncn4-c3ccsc3)nc2c1 | 14.5% (inactive)
11 | CC(C)n1cnc2c(NCc3nc4c([N+](=O)[O-])cccc4[nH]3)nc(N3CCOCC3)nc21 | 111%
12 | O=[N+]([O-])c1cccc2[nH]c(CNc3nc(N4CCOCC4)nc4c3ncn4-c3ccsc3)nc12 | 100%
13 | CC(C)n1cnc2c(NCc3nc4ccccc4[nH]3)nc(Nc3ccncn3)nc21 | 4% (inactive)
14 | C[C@@H](Nc1nc(NCc2nc3ccccc3[nH]2)c2ncn(-c3ccsc3)c2n1)c1ccccc1 | 9.2% (inactive)
15 | Clc1ccc2nc(CNc3nc(N4CCOCC4)nc4c3ncn4-c3ccsc3)[nH]c2c1 | 101%
16 | CC(C)n1cnc2c(NCc3nc4ccccc4[nH]3)nc(Nc3cccnc3)nc21 | 3.4% (inactive)
17 | c1ccc2[nH]c(CNc3nc(N4CCSCC4)nc4c3ncn4-c3ccsc3)nc2c1 | 11.4% (inactive)
18 | c1ccc2[nH]c(CNc3nc(N4CCCCC4)nc4c3ncn4-c3ccsc3)nc2c1 | 10.5% (inactive)
19 | NCCN1CCN(c2nc(NCc3nc4ccccc4[nH]3)c3ncn(-c4ccsc4)c3n2)CC1 | 8.6% (inactive)
20 | FC(F)(F)c1cccc2[nH]c(CNc3nc(N4CCOCC4)nc4c3ncn4-c3ccsc3)nc12 | 10.8% (inactive)
21 | CCOC(=O)c1cccc2[nH]c(CNc3nc(N4CCOCC4)nc4c3ncn4C(C)C)nc12 | 17% (inactive)
22 | Nc1cccc2[nH]c(CNc3nc(N4CCOCC4)nc4c3ncn4-c3ccsc3)nc12 | 15.6% (inactive)
23 | FC(F)(F)c1ccc2nc(CNc3nc(N4CCOCC4)nc4c3ncn4-c3ccsc3)[nH]c2c1 | 46.3%

Second part, the compound after the results:

Row | inhibition of WEE1 degradation | Structure (SMILES)
24 | 4% (inactive) | c1ccc(-n2cnc3c(NCc4nc5ccccc5[nH]4)nc(N4CCOCC4)nc32)cc1
25 | 14.1% (inactive) | CN1CCN(c2nc(NCc3nc4ccccc4[nH]3)c3ncn(-c4ccsc4)c3n2)CC1
26 | 3.6% (inactive) | O=C(NC1CC1)c1ccc(-c2nc(NCc3nc4ccccc4[nH]3)c3ncn(-c4ccsc4)c3n2)cc1
27 | 22% | c1cnc2ccc3[nH]c(CNc4nc(N5CCOCC5)nc5c4ncn5-c4ccsc4)nc3c2c1
28 | 8.3% (inactive) | Nc1ccc2nc(CNc3nc(N4CCOCC4)nc4c3ncn4-c3ccsc3)[nH]c2c1
29 | 81.4% | Fc1ccc2nc(CNc3nc(N4CCOCC4)nc4c3ncn4-c3ccsc3)[nH]c2c1
30 | 56.8% | c1ccc2[nH]c(CNc3nc(N4CCOCC4)nc4c3ncn4-c3ccsc3)nc2c1
31 | 10% (inactive) | OCCN1CCN(c2nc(NCc3nc4ccccc4[nH]3)c3ncn(-c4ccsc4)c3n2)CC1
32 | 79.5% | COc1ccc2nc(CNc3nc(N4CCOCC4)nc4c3ncn4-c3ccsc3)[nH]c2c1
33 | 97.3% | CCOC(=O)c1cccc2[nH]c(CNc3nc(N4CCOCC4)nc4c3ncn4-c3ccsc3)nc12
34 | 4.1% (inactive) | CC(C)n1cnc2c(NCc3nc4ccccc4[nH]3)nc(N3CCOCC3)nc21
35 | 13.4% (inactive) | FC(F)(F)c1cc(Br)c2nc(CNc3nc(N4CCOCC4)nc4c3ncn4-c3ccsc3)[nH]c2c1
36 | 48.3% | c1ccc2cc3[nH]c(CNc4nc(N5CCOCC5)nc5c4ncn5-c4ccsc4)nc3cc2c1
37 | 18.7% (inactive) | O=[N+]([O-])c1ccc2nc(CNc3nc(N4CCOCC4)nc4c3ncn4-c3ccsc3)[nH]c2c1
